# Source: US7674620B2, “Derivation of terminally differentiated dopaminergic neurons from human embryonic stem cells” (Reliance Life Sciences Pvt. Ltd., priority 2003, dated 2010)
# Assays:
# [1] = tested on: embryonic stem cell-derived dopaminergic neurons; assay: Intracellular dopamine in cell lysates by RP-HPLC; type: cell-based, human; settings: for Dopamine concentration in cell lysates by HPLC: 56 mM KCl
# Description: One definitive characteristic of a dopaminergic neuron is the production of dopamine. Therefore, the functional capacity of embryonic stem cell-derived dopaminergic neurons to produce dopamine was evaluated by directly measuring the intracellular dopamine levels using Reverse Phase HPLC (RP-HPLC). The concentration of dopamine detected in each sample was determined by comparison with a standard solution of dopamine injected into the column immediately before and after each experiment.
# (§1) To begin, cells were collected at different stages of the disclosed method: undifferentiated ES cells, embryoid bodies, Nestin-positive neuroprogenitor cells, NCAM-positive cells, and differentiated cells isolated after 7, 22, and 37 days of differentiation in Neurobasal medium. Before collection, the cells differentiated in Neurobasal medium were first stimulated to induce dopamine secretion by the addition of 56 mM KCl in HBSS for 15 minutes. Approximately 5×10^6 cells were trypsinised and pelleted by centrifugation. The cells were then sonicated in cold 1N perchloric acid with antioxidants (0.2 g/l sodium metabisulphite), and centrifuged at 15,000 rpm/min for 20 minutes at 4° C. The supematent was extracted and stored at −70° C. for subsequent determination of the intracellular dopamine concentration by RP-HPLC. Dopamine levels were determined in the cell lysates and culture supematent (48 hrs after the last medium change). The culture supematent was immediately stabilized with 7.5% orthophosphoric acid and sodium metabisulphite.
# [2] = tested on: embryonic stem cell-derived dopaminergic neurons; assay: Dopamine release into conditioned medium by RP-HPLC; type: cell-based, human; settings: 56 mM for 15 minutes, 7, 22, 37 days of differentiation
# Description: The cells were stimulated with 56 mM KCl for 15 minutes to induce secretion of dopamine; the culture supernatant was stabilized with 7.5% orthrophosphoric acid and sodium metabisulphite before analysis by RP-HPLC.
# as §1
# [3] = tested on: embryonic stem cell-derived dopaminergic neurons; assay: Intracellular dopamine in cell lysates by RP-HPLC; type: cell-based, human; settings: cell cultures incubated with the neurotoxin
# [4] = tested on: neuroprogenitor cells derived from human embryonic stem cells; assay: Differentiation of neuroprogenitor cells into TH positive (dopaminergic) neurons, immunofluorescence; type: cell-based; settings: present in the Neurobasal medium
# Excerpt: Development of dopaminergic neurons in vivo depends on the regulated action of extracellular signaling molecules. These molecules activate a cascade of transcription factors with lineage-restricted expression. These transcription factors are responsible for increasing the expression of a specific set of genes involved in the development of the dopaminergic phenotype. To encourage the expanded neuroprogenitors cells generated using the above protocol into functional dopaminergic neurons, the growth factors bFGF and EGF were first withdrawn from the cells. Next, differentiation of the neuroprogenitors cells into dopaminergic neurons was induced by culturing the cells in Neurobasal medium for 30-50 days. […]
# The differentiated neuronal cell types generated according to the present disclosure were evaluated both by the overall morphology of the cells, as well as the phenotypes identified by immunoflourescence. […]
# The differentiated cells were also analyzed by double-labeling the cells with primary antibodies to TH (green), along with MAP-2, DAT, Nurr-1, β-Tubulin, FITC-labeled secondary antibodies (Texas red) respectively (FIG. 8). […] The cell density of dopaminergic neurons was quantified by counting the numbers of TH-positive cells and MAP-2-positive cells per field in randomly selected fields using a 40× objective lens. The percent proportion of TH-positive cells was calculated (FIG. 9). […]
compound,measurement,setting,value
[Cl-].[K+] [KCl],Dopamine concentration in cell lysates by HPLC,"[1]; 7 d, line #3, after 'Addition of growth factors'",5.5 µg/mL
same,Dopamine concentration in cell lysates by HPLC,"[1]; 7 d, line #5, after 'N-acetyl cysteine along with growth factors'",8.8 µg/mL
same,Dopamine concentration in cell lysates by HPLC,"[1]; 7 d, line #7, after 'Ascorbic acid along with growth factors'",6.9 µg/mL
same,Dopamine concentration in cell lysates by HPLC,"[1]; 22 d, line #3, after 'Addition of growth factors'",22 µg/mL
same,Dopamine concentration in cell lysates by HPLC,"[1]; 22 d, line #5, after 'N-acetyl cysteine along with growth factors'",30.9 µg/mL
same,Dopamine concentration in cell lysates by HPLC,"[1]; 22 d, line #7, after 'Ascorbic acid along with growth factors'",5.5 µg/mL
same,Dopamine concentration in cell lysates by HPLC,"[1]; 37 d, line #3, after 'Addition of growth factors'",7.2 µg/mL
same,Dopamine concentration in cell lysates by HPLC,"[1]; 37 d, line #5, after 'N-acetyl cysteine along with growth factors'",10 µg/mL
same,Dopamine concentration in cell lysates by HPLC,"[1]; 37 d, line #7, after 'Ascorbic acid along with growth factors'",10 µg/mL
same,dopamine release into the conditioned medium (FIG. 14),[2],causes dopamine release
same,dopamine release into the conditioned medium (FIG. 14),[2]; listed as KCL,increase
"CN1CC=C(c2ccccc2)CC1.Cl [MPTP, N-methyl-4-phenyl 1,2,3,6-tetrahydropyridine hydrochloride]",intracellular dopamine in cell lysates of treated cells (FIG. 13),[1]; 7 days of differentiation,No dopamine was detected
same,intracellular dopamine in cell lysates of treated cells (FIG. 13),[1]; 22 days of differentiation,No dopamine was detected
same,intracellular dopamine in cell lysates of treated cells (FIG. 13),[1]; 37 days of differentiation,reduced
same,dopamine in cell lysates of incubated cell cultures by RP-HPLC,[3],no dopamine was detected
"IL-1β: Interleukin-1β, growth factor in the Neurobasal medium",effect on amount of TH positive neurons,[4],appears to increase the amount of TH positive neurons
